Assay results from PubChem BioAssay AID328 (DTP/NCI, 2004).
Where “and” joins values, the source holds several entries; their conditions need not be identical. Identical values can stand only once. Inconclusive results and toxic doses are left out. Residues, ends and D or L forms follow the SMILES beside them. *: point of attachment. Bn = c1ccc(C*)cc1; For = O=C*

Test system: BDF1 mice, P388 leukemia ip, median survival T/C
Assay: NCI In Vivo Anticancer Drug Screen. Data for tumor model P388 Leukemia (intraperitoneal) in B6D2F1 (BDF1) mice
Details: endpoint: median survival time, higher = longer survival
Procedure, shortened: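 Steps: implant the tumour, treat one group with compound and another with vehicle, record survival, then divide treated by control.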

[1] = dose: 200.0 mg/kg/injection, schedule: Q01DX009 (ip), vehicle: Klucel (hydroxypropylcellulose) (HPC)
[2] = dose: 100.0 mg/kg/injection, schedule: Q01DX009 (ip), vehicle: saline with Tween-80
[3] = dose: 100.0 mg/kg/injection, schedule: Q04DX003 (ip), vehicle: saline with Tween-80
[4] = dose: 200.0 mg/kg/injection, schedule: Q01DX009 (ip), vehicle: saline with Tween-80
[5] = dose: 200.0 mg/kg/injection, schedule: Q04DX003 (ip), vehicle: saline with Tween-80
[6] = dose: 400.0 mg/kg/injection, schedule: Q04DX003 (ip), vehicle: saline with Tween-80
[7] = dose: 25.0 mg/kg/injection, schedule: Q01DX009 (ip), vehicle: water
[8] = dose: 100.0 mg/kg/injection, schedule: Q01DX009 (ip), vehicle: water
[9] = dose: 50.0 mg/kg/injection, schedule: Q01DX009 (ip), vehicle: saline with Tween-80
[10] = dose: 50.0 mg/kg/injection, schedule: Q04DX003 (ip), vehicle: saline with Tween-80

CO[C@H]1/C=C/O[C@@]2(C)Oc3c(C)c(O)c4c(O)c(c(/C=N/N5C(C)CN(Cc6ccccc6)CC5C)c(O)c4c3C2=O)NC(=O)/C(C)=C\C=C\[C@H](C)[C@H](O)[C@@H](C)[C@@H](O)[C@@H](C)[C@H](OC(C)=O)[C@@H]1C (some centres undefined)
T/C (dose: 12.5 mg/kg/injection, schedule: Q01DX005 (ip), vehicle: Klucel (hydroxypropylcellulose) (HPC)): 94 % of control | T/C (dose: 12.5 mg/kg/injection, schedule: Q01DX005 (ip), vehicle: other): 97 % of control | T/C (dose: 12.5 mg/kg/injection, schedule: Q01DX005 (oral), vehicle: other): 103 % of control | T/C (dose: 12.5 mg/kg/injection, schedule: Q02DX Z (oral), vehicle: Klucel (hydroxypropylcellulose) (HPC)): 89 % of control | T/C (dose: 25.0 mg/kg/injection, schedule: Q01DX005 (ip), vehicle: Klucel (hydroxypropylcellulose) (HPC)): 97 % of control | T/C (dose: 25.0 mg/kg/injection, schedule: Q01DX005 (ip), vehicle: other): 106 % of control | T/C (dose: 25.0 mg/kg/injection, schedule: Q01DX005 (oral), vehicle: Klucel (hydroxypropylcellulose) (HPC)): 104 % of control | T/C (dose: 25.0 mg/kg/injection, schedule: Q01DX005 (oral), vehicle: other): 103 % of control | T/C (dose: 25.0 mg/kg/injection, schedule: Q02DX Z (ip), vehicle: Klucel (hydroxypropylcellulose) (HPC)): 105 % of control | T/C (dose: 50.0 mg/kg/injection, schedule: Q01DX005 (ip), vehicle: Klucel (hydroxypropylcellulose) (HPC)): 94 % of control | T/C (dose: 50.0 mg/kg/injection, schedule: Q01DX005 (ip), vehicle: other): 103 % of control | T/C (dose: 50.0 mg/kg/injection, schedule: Q01DX005 (oral), vehicle: Klucel (hydroxypropylcellulose) (HPC)): 104 % of control | T/C (dose: 50.0 mg/kg/injection, schedule: Q01DX005 (oral), vehicle: other): 104 % of control | T/C (dose: 50.0 mg/kg/injection, schedule: Q01DX009 (ip), vehicle: Klucel (hydroxypropylcellulose) (HPC)): 90 % of control | T/C (dose: 50.0 mg/kg/injection, schedule: Q02DX Z (ip), vehicle: Klucel (hydroxypropylcellulose) (HPC)): 105 % of control | T/C (dose: 50.0 mg/kg/injection, schedule: Q02DX Z (oral), vehicle: Klucel (hydroxypropylcellulose) (HPC)): 99 % of control | T/C (dose: 100.0 mg/kg/injection, schedule: Q01DX005 (ip), vehicle: Klucel (hydroxypropylcellulose) (HPC)): 100 % of control | T/C (dose: 100.0 mg/kg/injection, schedule: Q01DX005 (ip), vehicle: other): 106 % of control | T/C (dose: 100.0 mg/kg/injection, schedule: Q01DX005 (oral), vehicle: Klucel (hydroxypropylcellulose) (HPC)): 105 % of control | T/C (dose: 100.0 mg/kg/injection, schedule: Q01DX005 (oral), vehicle: other): 114 % of control | T/C (dose: 100.0 mg/kg/injection, schedule: Q01DX009 (ip), vehicle: Klucel (hydroxypropylcellulose) (HPC)): 100 % of control | T/C (dose: 100.0 mg/kg/injection, schedule: Q02DX Z (ip), vehicle: Klucel (hydroxypropylcellulose) (HPC)): 110 % of control | T/C (dose: 100.0 mg/kg/injection, schedule: Q02DX Z (oral), vehicle: Klucel (hydroxypropylcellulose) (HPC)): 100 % of control | T/C (dose: 200.0 mg/kg/injection, schedule: Q01DX005 (ip), vehicle: Klucel (hydroxypropylcellulose) (HPC)): 86 % of control | T/C (dose: 200.0 mg/kg/injection, schedule: Q01DX005 (ip), vehicle: other): 112 % of control | T/C (dose: 200.0 mg/kg/injection, schedule: Q01DX005 (oral), vehicle: Klucel (hydroxypropylcellulose) (HPC)): 105 % of control | T/C [1]: 100 % of control | T/C (dose: 200.0 mg/kg/injection, schedule: Q02DX Z (ip), vehicle: Klucel (hydroxypropylcellulose) (HPC)): 110 % of control | T/C (dose: 200.0 mg/kg/injection, schedule: Q02DX Z (oral), vehicle: Klucel (hydroxypropylcellulose) (HPC)): 89 % of control | T/C (dose: 400.0 mg/kg/injection, schedule: Q01DX005 (ip), vehicle: Klucel (hydroxypropylcellulose) (HPC)): 97 % of control | T/C (dose: 400.0 mg/kg/injection, schedule: Q01DX005 (oral), vehicle: Klucel (hydroxypropylcellulose) (HPC)): 106 % of control | T/C (dose: 400.0 mg/kg/injection, schedule: Q02DX Z (ip), vehicle: Klucel (hydroxypropylcellulose) (HPC)): 116 % of control | T/C (dose: 400.0 mg/kg/injection, schedule: Q02DX Z (oral), vehicle: Klucel (hydroxypropylcellulose) (HPC)): 91 % of control | T/C (dose: 800.0 mg/kg/injection, schedule: Q01DX005 (oral), vehicle: Klucel (hydroxypropylcellulose) (HPC)): 104 % of control | T/C (dose: 800.0 mg/kg/injection, schedule: Q02DX Z (ip), vehicle: Klucel (hydroxypropylcellulose) (HPC)): 110 % of control | T/C (dose: 1600.0 mg/kg/injection, schedule: Q01DX005 (oral), vehicle: Klucel (hydroxypropylcellulose) (HPC)): 110 % of control | T/C (dose: 1600.0 mg/kg/injection, schedule: Q02DX Z (ip), vehicle: Klucel (hydroxypropylcellulose) (HPC)): 109 % of control

CCOP(=S)(N1CC1(C)C)N1CC1(C)C (centres undefined)
T/C (dose: 264.0 mg/kg/injection, schedule: Q04DX003 (ip), vehicle: saline with Tween-80): 229 % of control

CC(=O)Nc1cc2c(cc1[N+](=O)[O-])-c1ccccc1C2O (centres undefined)
T/C [2]: 100 % of control | T/C [3]: 100 % of control | T/C [4]: 90 % of control | T/C [5]: 104 % of control | T/C [6]: 104 % of control

O=C1NC(=O)C(c2cccs2)(c2cccs2)N1
T/C [7]: 115 % of control | T/C [8]: 111 % of control | T/C (dose: 100.0 mg/kg/injection, schedule: Q04DX003 (ip), vehicle: water): 99 % of control | T/C (dose: 200.0 mg/kg/injection, schedule: Q04DX003 (ip), vehicle: water): 98 % of control

CC(C)CC(NC(=O)C(Cc1ccc(OCc2ccccc2)cc1)NC=O)C(=O)O (centres undefined) (For-Tyr(Bn)-Leu-OH; configuration not given here)
T/C [9]: 110 % of control | T/C [2]: 95 % of control and 100 % of control (2×) | T/C (dose: 100.0 mg/kg/injection, schedule: Q01DX009 (ip), vehicle: sodium bicarbonate): 90 % of control | T/C [3]: 105 % of control | T/C [4]: 86 % of control and 95 % of control and 110 % of control | T/C (dose: 200.0 mg/kg/injection, schedule: Q01DX009 (ip), vehicle: sodium bicarbonate): 105 % of control | T/C [5]: 105 % of control | T/C (dose: 400.0 mg/kg/injection, schedule: Q01DX009 (ip), vehicle: saline with Tween-80): 90 % of control | T/C [6]: 110 % of control

Cc1c(C#N)c2n(c1C)CCCC(=O)N2
T/C (dose: 25.0 mg/kg/injection, schedule: Q01DX009 (ip), vehicle: saline with Tween-80): 95 % of control | T/C [9]: 109 % of control | T/C [10]: 91 % of control | T/C [2]: 104 % of control | T/C [3]: 91 % of control | T/C [4]: 100 % of control | T/C [5]: 87 % of control | T/C [6]: 91 % of control

Cc1nc(N)c(Cl)nc1C
T/C [10]: 102 % of control and 104 % of control | T/C [3]: 103 % of control | T/C (dose: 150.0 mg/kg/injection, schedule: Q04DX003 (ip), vehicle: saline with Tween-80): 103 % of control | T/C [5]: 95 % of control and 104 % of control | T/C [6]: 104 % of control

O=C(O)c1c2c(nc3ccccc13)Cc1ccccc1-2
T/C (dose: 12.5 mg/kg/injection, schedule: Q01DX009 (ip), vehicle: water): 96 % of control and 97 % of control | T/C (dose: 25.0 mg/kg/injection, schedule: Q01DX009 (ip), vehicle: saline): 111 % of control | T/C [7]: 88 % of control and 114 % of control | T/C (dose: 50.0 mg/kg/injection, schedule: Q01DX009 (ip), vehicle: saline): 110 % of control | T/C (dose: 50.0 mg/kg/injection, schedule: Q01DX009 (ip), vehicle: water): 119 % of control | T/C (dose: 90.0 mg/kg/injection, schedule: Q01DX009 (ip), vehicle: Klucel (hydroxypropylcellulose) (HPC)): 163 % of control | T/C [8]: 173 % of control and 176 % of control | T/C (dose: 133.0 mg/kg/injection, schedule: Q01DX009 (ip), vehicle: Klucel (hydroxypropylcellulose) (HPC)): 186 % of control | T/C [1]: 163 % of control | T/C (dose: 200.0 mg/kg/injection, schedule: Q01DX009 (ip), vehicle: water): 187 % of control
